Experimental data reported in patent publication US20220354764A1, “METHODS FOR PROMOTING HAIR GROWTH” (Follica, Inc., priority 2018, published 2022).

Assays:
[1] = test system: adult males with androgenetic alopecia (AGA); assay: Hair count by macrophotography after needling device treatment plus minoxidil (Example 1); format: in vivo, human; conditions: needling device plus 2%/5% MTS, 12 weeks; comparison: 12% increase in Olsen 2002 and 2007
Description: A macrophotography procedure as referred to herein includes identifying the designated photography site, clipping hair within targeted photography site to a length of 1 mm, and creating a needlestick tattoo in the center of the targeted photography site for future orientation (pressure was applied until any bleeding stops), mapping the position of the tattoo, and recording the measurements on the provided documentation. The procedure further includes using the tattoo as a reference point take the first Baseline photograph without the contact plate, and again, using the tattoo as a reference point, performing remaining Baseline photography with the contact plate. From the identified designated photography site, the width of each hair is determined using an electronic caliber measurement. All hairs greater than […] are classified as terminal hairs. […]
A macrophotography procedure as described above was carried out for each subject, using a single, circular 1.9 cm^2 site in the leading edge of an actively balding area of the vertex as the designated photography site. Total Area Hair Count (TAHC), Target Area Hair Width (TAHW) and Target Area Hair Density/Darkness (TAHD) were assessed via quantitative image analysis to determine non-vellus hair count (primary and secondary endpoint) and total hair count (non-vellus and vellus hair, secondary endpoint). […]

[2] = Minoxidil blood serum concentration after needling device treatment plus 2%/5% MTS (Example 1); format: in vivo, human
Description: A multicenter randomized study was conducted to assess the safety and efficacy of treatment methods using a needling device in conjunction with minoxidil in adult males with androgenetic alopecia (AGA). The study involved 14 subjects, male, age 18-40 years, with a diagnosis of androgenetic alopecia. Data for 46 additional subjects is being gathered. The subjects were randomized and then completed treatment across 12 weeks (total of 3, 6, or 12 treatments with the needling device per randomization assignment, n=20 per arm). A final evaluation was conducted on Day 85 with no additional follow up required.
On Day 0, subjects were randomized to receive treatment with the needling device on a weekly (12 treatments), bi-weekly (6 treatments), or monthly (once every 4 weeks, for 3 total treatments) basis for 12 weeks, in a 1:1:1 ratio according to a centrally maintained randomization table. Treatment of the vertex (including transitional areas) with the needling device was initiated on Day 1.
Subjects in the monthly arm received needling device treatment once every 4 weeks, for 3 procedures total (e.g., needling device treatment on Days 1, 29, 57). Subjects in the bi-weekly arm received needling device treatment once every 2 weeks, for 6 procedures total (e.g., needling device treatment on Days 1, 15, 29, 43, 57, and 71). Subjects in the weekly arm received needling device treatment once every week, for 12 procedures total (e.g., needling device treatment on Days 1, 8, 15, 22, 29, 36, 43, 50, 57, 64, 71, and 78).
During needling treatments, the translation speed of the device, which is the speed at which the needling device was glided over the affected skin area, was 2 cm/second, while keeping the device perpendicular to the surface to help achieve a needle strike of 0.8 mm (+/−0.2 mm) micro-needling depth. The device needle array has 12 needles and the number of array oscillations per second was set at 120. The treatment width was 0.9 cm. Two overlapping passes were made in vertical and horizontal directions. As a result, 1600 needle strikes per cm^2 were performed. The micro-needling device was glided across the affected area of the skin such that each pass across the area of skin aligned with the prior pass across the skin, without gaps of skin between the passes, in a “mow the lawn” approach. Each pass of the micro-needling device started with a gliding start and a smooth retraction of the device from the skin area following each pass. The micro-needling device was applied to the skin area with consistent, light pressure, allowing the device to glide along the skin. The configuration of needles in the needle array consists of 2 offset rows of 6 microneedles.
A post-treatment visit was required following each subject's first treatment with the needling device across all study arms to confirm wound closure. The post-treatment visit was performed 24-36 hours following the first treatment with the needling device. If adequate wound closure and skin normality was not achieved, the subject would return for a second post-treatment visit 24-36 hours following the first post-treatment visit. Once adequate wound closure was confirmed, subjects were provided study drug to be applied in accordance with the instructions provided herein (vertex, including transitional areas). The very first application of study drug was performed in-clinic during the first post-treatment visit in which wound closure is confirmed. […]

serum level average, Day 1 ([2]; Day 1, needling device plus MTS regimen): 1.29 ng/mL
serum level average, Day 29 ([2]; Day 29, needling device plus MTS regimen): 0.99 ng/mL
serum level average, Day 57 ([2]; Day 57, needling device plus MTS regimen): 0.79 ng/mL
serum level average, Day 85 ([2]; Day 85, final study visit, needling device plus MTS regimen): 0.65 ng/mL
maximum serum level recorded in the study ([2]; individual maximum, needling device plus 2%/5% MTS step-up): 5.5 ng/mL
SMILES: Nc1cc(N2CCCCC2)nc(N)[n+]1[O-] [minoxidil]
subjects showing an increase in non-vellus target area hair count greater than prior large minoxidil studies [1]: 79%
